Each molecule was assayed against T1, human recombinant ALK1 (GST fused to ALK1 intracellular domain [His142-Gln503]) (Homo sapiens, UniProt P37023) (assay: ALK1-Kinase Flashplate-Assay). Conditions: 0.5 μM ATP, biotinylated α-casein substrate; read-out: Assay 1 (ALK1-Kinase Flashplate-Assay IC50 class).
T1 construct: GST fused to ALK1 intracellular domain [His142-Gln503]; made in house
T1 sequence (P37023 142-503): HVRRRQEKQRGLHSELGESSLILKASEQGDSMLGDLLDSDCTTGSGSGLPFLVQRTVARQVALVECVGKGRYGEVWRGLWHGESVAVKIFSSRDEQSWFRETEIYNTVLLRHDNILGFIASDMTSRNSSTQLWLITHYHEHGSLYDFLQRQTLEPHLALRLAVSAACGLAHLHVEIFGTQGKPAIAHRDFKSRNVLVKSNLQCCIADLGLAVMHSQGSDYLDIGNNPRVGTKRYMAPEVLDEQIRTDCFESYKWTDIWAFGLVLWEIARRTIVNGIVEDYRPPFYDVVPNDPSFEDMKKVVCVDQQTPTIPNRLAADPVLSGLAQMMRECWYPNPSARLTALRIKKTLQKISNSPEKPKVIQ
Format: biochemical
Source text: Biological Assay 1: ALK1-Kinase Flashplate-Assay
ALK1 phosphorylates serine/threonine residues of the biotinylated substrate bovine α-casein in the presence of [γ-^33P]ATP. Detection of the radiolabeled phosphorylated product is achieved by binding to streptavidine-coated Flashplates. The biotin moieties of biotinylated casein bind with high affinity to the streptavidine. The radiolabeled biotinylated casein produced by the ALK1 kinase reaction is able to generate a […] signal when strepatavidine-mediated binding occurs to the scintillant-containing surface of the Flashplates due to the close proximity of the radiolabel and the scintillant. […] The signals obtained are therefore indicative of the ALK1 kinase activity. Measurement is performed in a Perkin-Elmer TopCount or Perkin-Elmer ViewLux instrument.
Enzyme: Purified human recombinant ALK1 (GST fused to ALK1 intracellular domain [His142-Gln503]) produced in-house, aliquots stored at −80° C.;
Diluted enzyme working solution: 2.5 ng/μl ALK1 (in assay buffer) freshly prepared and chilled on ice until use.
Substrate: biotinylated bovine α-casein. Unbiotinylated casein obtained from Sigma was biotinylated by standard procedures using N-hydroxysuccinimide (NHS) ester of biotin.
Substrate working solution: 0.83 μM ATP, 1.67 μM biotinylated a-casein, 7.4 nCi [γ-^33P]ATP/μl in assay buffer
Assay plates: 384-well plates, small volume, white, Greiner (# 784075)
Flashplates: Streptavidin-coated Flashplates, Perkin Elmer (384-well # SPM410A)
Assay buffer: 50 mM Tris/HCl pH 8.0, 1 mM MnCl2, 1 mM DTT, 0.01% NP40, 0.5× Complete EDTA-free
Stop solution: 33.3 μM ATP, 33.3 mM EDTA, 0.07% Triton X-100 in PBS
Saturating buffer for Flashplates: 100 μM ATP, 0.2% Triton X-100 in PBS
Sealing tape: Greiner (# 676080)
Protocol for small volume 5 μl assay (all steps are performed at 20° C., pipetted with CyBi-Well and Multidrop Micro): • 1. 50 nl or 250 nl compound in 100% DMSO • 2. addition of 3 μl substrate working solution with CyBi-Well pipettor • 3. addition of 2 μl enzyme working solution with Multidrop Micro incubation for 60 min at room temperature • 4. addition of 15 μl Stop solution with CyBi-Well pipettor • 5. transfer of 18 μl assay mixture to Flashplates** with CyBi-Well pipettor incubation for at least 3 h at room temperature or over night at 4° C. to allow binding to the streptavidine-coated Flashplates • 6. washing the Flashplates 3 times with 50 μl PBS without Ca++ and Mg++ • 7. sealing with sealing tape • 8. Measurement in Topcount (60 sec/well) **Saturation of Flashplates: The Flashplates are preincubated for at least 1 hour with 50 μl saturating buffer. Remove 18 μl from the 50 μl and transfer 18 μl of the assay mixture to the Flashplate.
Final concentrations, calculated for 5 μl reaction volume: ALK1 5 ng/well; 1 μM biotinylated α-casein; 0.5 μM ATP; 22 nCi/well [γ-^33P]ATP; 1 mM MnCl2; 1 mM DTT; 50 mM Tris-HCl; pH 8.0; 0.01% NP40; 0.5× Complete EDTA-free; 1% or 5% DMSO.
The data were normalised (enzyme reaction without inhibitor=0% inhibition, enzyme reaction in the presence of 10 mM EDTA=100% inhibition) and IC50 values were calculated by a 4 parameter fit using an in-house software.

| Structure (SMILES) | IC50 |
| --- | --- |
| COc1cc(Nc2ccn3ncc(-c4cc(OC)c(OC)c(OC)c4)c3n2)cc(OC)c1OC [Example 77, (3,4,5-Trimethoxy-phenyl)-[3-(3,4,5-trimethoxy-phenyl)-pyrazolo[1,5-a]pyrimidin-5-yl]-amine] | < 1000 nM |
| COc1ccc(Nc2ccn3ncc(-c4cc(OC)c(OC)c(OC)c4)c3n2)cn1 [Example 90, (6-Methoxy-pyridin-3-yl)-[3-(3,4,5-trimethoxy-phenyl)-pyrazolo[1,5-a]pyrimidin-5-yl]-amine] | < 1000 nM |
| COc1cc(-c2cnn3ccc(Nc4ccc(C(C)C)cc4)nc23)cc(OC)c1OC [Example 97, (4-Isopropyl-phenyl)-[3-(3,4,5-trimethoxy-phenyl)-pyrazolo[1,5-a]pyrimidin-5-yl]-amine] | < 1000 nM |
| COc1cc(-c2cnn3ccc(Nc4ccc(C)c(NS(C)(=O)=O)c4)nc23)cc(OC)c1OC [Example 105, N-{2-Methyl-5-[3-(3,4,5-trimethoxy-phenyl)-pyrazolo[1,5-a]pyrimidin-5-ylamino]-phenyl}-methanesulfonamide] | < 1000 nM |
| COc1cncc(-c2cnn3ccc(Nc4ccc(C)c(NS(C)(=O)=O)c4)nc23)c1 [Example 107, N-{5-[3-(5-Methoxy-pyridin-3-yl)-pyrazolo[1,5-a]pyrimidin-5-ylamino]-2-methyl-phenyl}-methanesulfonamide] | 1000 to 10000 nM |
| FC(F)(F)Oc1cccc(-c2cnn3ccc(NCc4ccncc4)nc23)c1 [Example 113, Pyridin-4-ylmethyl-[3-(3-trifluoromethoxy-phenyl)-pyrazolo[1,5-a]pyrimidin-5-yl]-amine] | < 1000 nM |
| COc1cncc(-c2cnn3ccc(NC4CCC(O)CC4)nc23)c1 (stereo not shown) [Example 116, 4-[3-(5-Methoxy-pyridin-3-yl)-pyrazolo[1,5-a]pyrimidin-5-ylamino]-cyclohexanol] | 1000 to 10000 nM |
| N#Cc1ccc(-c2cnn3ccc(NCCO)nc23)cc1 [Example 119, 4-[5-(2-Hydroxy-ethylamino)-pyrazolo[1,5-a]pyrimidin-3-yl]-benzonitrile] | 1000 to 10000 nM |
| COc1cc(-c2cnn3ccc(NCCO)nc23)cc(OC)c1OC [Example 120, 2-[3-(3,4,5-Trimethoxy-phenyl)-pyrazolo[1,5-a]pyrimidin-5-ylamino]-ethanol] | < 1000 nM |
| COc1cncc(-c2cnn3ccc(NCCO)nc23)c1 [Example 123, 2-[3-(5-Methoxy-pyridin-3-yl)-pyrazolo[1,5-a]pyrimidin-5-ylamino]-ethanol] | < 1000 nM |
| COc1cc(-c2cnn3ccc(NCc4cccnc4)nc23)cc(OC)c1OC [Example 126, Pyridin-3-ylmethyl-[3-(3,4,5-trimethoxy-phenyl)-pyrazolo[1,5-a]pyrimidin-5-yl]-amine] | 1000 to 10000 nM |
| COc1cc(-c2cnn3ccc(NCCN(C)C)nc23)cc(OC)c1OC [Example 134, N,N-Dimethyl-N-[3-(3,4,5-trimethoxy-phenyl)-pyrazolo[1,5-a]pyrimidin-5-yl]-ethane-1,2-diamine] | 1000 to 10000 nM |
| COc1cc(Nc2ccn3ncc(-c4cccc(O)c4)c3n2)cc(OC)c1OC [Example 138, 3-[5-(3,4,5-Trimethoxy-phenylamino)-pyrazolo[1,5-a]pyrimidin-3-yl]-phenol] | 1000 to 10000 nM |
| COc1cc(-c2cnn3ccc(Nc4ccc(C)c(NS(C)(=O)=O)c4)nc23)ccc1O [Example 151] | < 1000 nM |
| COc1ccc(-c2cnn3ccc(NCc4ccncc4)nc23)cc1 [Example 154, [3-(4-Methoxy-phenyl)-pyrazolo[1,5-a]pyrimidin-5-yl]-pyridin-4-ylmethyl-amine] | 1000 to 10000 nM |
| COc1ccc(-c2cnn3ccc(NC4CCC(O)CC4)nc23)cc1 (stereo not shown) [Example 155, 4-[3-(4-Methoxy-phenyl)-pyrazolo[1,5-a]pyrimidin-5-ylamino]-cyclohexanol] | 1000 to 10000 nM |

More lines, now with the values ahead:

| IC50 | Structure (SMILES) |
| --- | --- |
| 1000 to 10000 nM | OCCNc1ccn2ncc(-c3ccc(O)cc3)c2n1 [Example 74, 4-[5-(2-Hydroxy-ethylamino)-pyrazolo[1,5-a]pyrimidin-3-yl]-phenol] |
| 1000 to 10000 nM | COc1cc(Nc2ccn3ncc(-c4cccc(C(=O)NCCO)c4)c3n2)cc(OC)c1OC [Example 79, N-(2-Hydroxy-ethyl)-3-[5-(3,4,5-trimethoxy-phenylamino)-pyrazolo[1,5-a]pyrimidin-3-yl]-benzamide] |
| 1000 to 10000 nM | O=C(O)CCc1ccc(-c2cnn3ccc(Nc4ccc(O)cc4)nc23)cc1 [Example 83, 3-{4-[5-(4-Hydroxy-phenylamino)-pyrazolo[1,5-a]pyrimidin-3-yl]-phenyl}-propionic acid] |
| 1000 to 10000 nM | COc1ccccc1-c1cnn2ccc(Nc3ccc(O)cc3)nc12 [Example 84, 4-[3-(2-Methoxy-phenyl)-pyrazolo[1,5-a]pyrimidin-5-ylamino]-phenol] |
| 1000 to 10000 nM | N#Cc1ccc(-c2cnn3ccc(Nc4ccc(O)cc4)nc23)cc1 [Example 86, 4-[5-(4-Hydroxy-phenylamino)-pyrazolo[1,5-a]pyrimidin-3-yl]-benzonitrile] |
| < 1000 nM | COc1cncc(-c2cnn3ccc(Nc4ccc(O)cc4)nc23)c1 [Example 87, 4-[3-(5-Methoxy-pyridin-3-yl)-pyrazolo[1,5-a]pyrimidin-5-ylamino]-phenol] |
| 1000 to 10000 nM | COc1ccc(Nc2ccn3ncc(-c4cccc(C(=O)NCCO)c4)c3n2)cn1 [Example 92, N-(2-Hydroxy-ethyl)-3-[5-(6-methoxy-pyridin-3-ylamino)-pyrazolo[1,5-a]pyrimidin-3-yl]-benzamide] |
| 1000 to 10000 nM | OCCNc1ccn2ncc(-c3ccc(Cl)cc3)c2n1 [Example 121, 2-[3-(4-Chloro-phenyl)-pyrazolo[1,5-a]pyrimidin-5-ylamino]-ethanol] |
| 1000 to 10000 nM | OCCNc1ccn2ncc(-c3cccc(OC(F)(F)F)c3)c2n1 [Example 122, 2-[3-(3-Trifluoromethoxy-phenyl)-pyrazolo[1,5-a]pyrimidin-5-ylamino]-ethanol] |
| 1000 to 10000 nM | FC(F)(F)Oc1cccc(-c2cnn3ccc(Nc4ccc(N5CCOCC5)cc4)nc23)c1 [Example 129, (4-Morpholin-4-yl-phenyl)-[3-(3-trifluoromethoxy-phenyl)-pyrazolo[1,5-a]pyrimidin-5-yl]-amine] |
| 1000 to 10000 nM | O=C(NCCO)c1cccc(-c2cnn3ccc(Nc4ccc(N5CCOCC5)cc4)nc23)c1 [Example 130, N-(2-Hydroxy-ethyl)-3-[5-(4-morpholin-4-yl-phenylamino)-pyrazolo[1,5-a]pyrimidin-3-yl]-benzamide] |
| 1000 to 10000 nM | CN(C)CCNc1ccn2ncc(-c3ccc(C(=O)O)cc3)c2n1 [Example 136, 4-[5-(2-Dimethylamino-ethylamino)-pyrazolo[1,5-a]pyrimidin-3-yl]-benzoic acid] |
| 1000 to 10000 nM | COc1ccc(-c2cnn3ccc(Nc4ccc(O)cc4)nc23)cc1 [Example 146, 4-[3-(4-Methoxy-phenyl)-pyrazolo[1,5-a]pyrimidin-5-ylamino]-phenol] |
| < 1000 nM | COc1ccc(-c2cnn3ccc(Nc4ccc(O)cc4)nc23)cn1 [Example 147, 4-[3-(6-Methoxy-pyridin-3-yl)-pyrazolo[1,5-a]pyrimidin-5-ylamino]-phenol] |
| < 1000 nM | Oc1cccc(-c2cnn3ccc(NC4CCC(O)CC4)nc23)c1 (stereo not shown) [Example 156, 3-[5-(4-Hydroxy-cyclohexylamino)-pyrazolo[1,5-a]pyrimidin-3-yl]-phenol] |

— patent publication US20080039455A1, “PYRAZOLOPYRIMIDINES AND SALTS THEREOF, PHARMACEUTICAL COMPOSITIONS COMPRISING SAME, METHODS OF PREPARING SAME AND USES OF SAME” (priority 2006, published 2008)
